Test results: publication PMC12592486 (Scientific Reports, 2025)

Columns and labels:
[1] = target: T1, α-glucosidase (Saccharomyces cerevisiae, UniProt P53341); assay: α-glucosidase inhibition assay; type: biochemical, S. cerevisiae
[2] = target: T1, α-glucosidase; assay: Enzyme kinetics study; type: biochemical, S. cerevisiae

T1 sequence (P53341 whole entry): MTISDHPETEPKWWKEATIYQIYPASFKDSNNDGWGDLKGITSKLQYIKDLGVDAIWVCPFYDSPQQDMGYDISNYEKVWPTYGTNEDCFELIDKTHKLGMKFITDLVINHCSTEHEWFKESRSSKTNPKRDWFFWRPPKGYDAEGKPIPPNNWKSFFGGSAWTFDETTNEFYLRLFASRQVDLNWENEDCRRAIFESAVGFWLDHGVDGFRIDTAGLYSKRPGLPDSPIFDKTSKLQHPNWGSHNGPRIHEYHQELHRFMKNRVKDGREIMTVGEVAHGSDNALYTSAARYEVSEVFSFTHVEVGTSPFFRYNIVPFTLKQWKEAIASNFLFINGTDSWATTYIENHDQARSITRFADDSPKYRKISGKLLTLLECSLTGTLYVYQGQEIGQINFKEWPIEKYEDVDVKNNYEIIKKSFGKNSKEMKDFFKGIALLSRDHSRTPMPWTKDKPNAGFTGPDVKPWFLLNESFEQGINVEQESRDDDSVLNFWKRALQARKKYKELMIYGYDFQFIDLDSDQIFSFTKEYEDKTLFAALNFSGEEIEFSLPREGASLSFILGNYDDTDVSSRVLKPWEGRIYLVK

SMILES	times/folds more active than the standard inhibitor acarbose [1]	also measured
O=S(=O)(c1ccc(Cl)cc1)n1cc(C=NNC(=S)Nc2c(Cl)cccc2Cl)c2ccccc21 [Compound 5w, 2-({1-[(4-Chlorophenyl)sulfonyl]-1H-indol-3-yl}methylene)-N-(2,6-dichlorophenyl)hydrazine-1-carbothioamide]	more than 100 folds	–
COc1ccc(NC(=S)NN=Cc2cn(S(=O)(=O)c3ccc(Cl)cc3)c3ccccc23)cc1 [Compound 5b, 2-({1-[(4-Chlorophenyl)sulfonyl]-1H-indol-3-yl}methylene)-N-(4-methoxyphenyl)hydrazine-1-carbothioamide]	–	folds more active than 5k ([1]; 4-methoxyphenyl vs 3-methoxyphenyl): 1.3 folds
O=S(=O)(c1ccc(Cl)cc1)n1cc(C=NNC(=S)Nc2ccc(Br)cc2)c2ccccc21 [Compound 5s, N-(4-Bromophenyl)-2-({1-[(4-chlorophenyl)sulfonyl]-1H-indol-3-yl}methylene)hydrazine-1-carbothioamide]	more than 100 folds	–
CC(C)CNC(=S)NN=Cc1cn(S(=O)(=O)c2ccc(Cl)cc2)c2ccccc12 [Compound 5p, 2-({1-[(4-Chlorophenyl)sulfonyl]-1H-indol-3-yl}methylene)-N-isobutylhydrazine-1-carbothioamide]	fifteen	–
O=S(=O)(c1ccc(Cl)cc1)n1cc(C=NNC(=S)Nc2ccc(Br)cc2F)c2ccccc21 [Compound 5u, N-(4-Bromo-2-fluorophenyl)-2-({1-[(4-chlorophenyl)sulfonyl]-1H-indol-3-yl}methylene)hydrazine-1-carbothioamide]	162 folds	better inhibition of 5u compared to 5p ([1]; most active vs least active inhibitor): about 11 folds; Ki [2]: 3.57 ± 0.0084 µM; type of inhibition ([2]; Km increases, Vmax constant): competitive type inhibitor
